# According to PubChem BioAssay (NCI):
# Several values for one entry are separate records, joined by “and”; a condition that tells them apart may be missing. Equal values may be shown once.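 Five concentrations, 48 hours, 96-well plates. Here, GI50 denotes the concentration required for 50% inhibition of growth. Definition used: TGI = concentration required for complete inhibition of growth.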
# What was measured:
# Test in all cases: NCI-60 cell line screen, 48 h
# [1] = tested on: RXF 393 renal
# [2] = tested on: UACC-257 melanoma
# [3] = tested on: OVCAR-3 ovarian
# [4] = tested on: BT-549 breast
# [5] = tested on: LXFL 529 NSCLC
# [6] = tested on: RPMI-8226 leukemia
# [7] = tested on: SNB-78 CNS
# [8] = tested on: DLD-1 colon
# [9] = tested on: SNB-75 CNS
# [10] = tested on: XF 498 CNS
# [11] = tested on: HOP-18 NSCLC
# [12] = tested on: OVCAR-8 ovarian
# [13] = tested on: U251 CNS
# [14] = tested on: PC-3 prostate
# [15] = tested on: HL-60(TB) leukemia
# [16] = tested on: OVCAR-5 ovarian
# [17] = tested on: NCI/ADR-RES ovarian
# [18] = tested on: A498 renal
# [19] = tested on: M14 melanoma
# [20] = tested on: DMS 114 small cell lung
# [21] = tested on: MDA-MB-231 breast
# [22] = tested on: HS 578T breast
# [23] = tested on: NCI-H460 lung
# [24] = tested on: SN12C renal
# [25] = tested on: KM20L2 colon
# [26] = tested on: M19-MEL melanoma
# [27] = tested on: NCI-H226 lung
# [28] = tested on: CAKI-1 renal
# [29] = tested on: MOLT-4 leukemia
# [30] = tested on: SK-MEL-5 melanoma
# [31] = tested on: HOP-92 NSCLC
# [32] = tested on: SK-OV-3 ovarian
# [33] = tested on: OVCAR-4 ovarian
# [34] = tested on: MCF7 breast
# [35] = tested on: NCI-H522 lung
# [36] = tested on: HCT-15 colon
# [37] = tested on: HT29 colon
# [38] = tested on: UO-31 renal
# [39] = tested on: SR leukemia
# [40] = tested on: HCC-2998 colon
# [41] = tested on: IGROV1 ovarian
# [42] = tested on: SK-MEL-28 melanoma
# [43] = tested on: HOP-62 NSCLC
# [44] = tested on: SK-MEL-2 melanoma
# [45] = tested on: SW-620 colon
# [46] = tested on: TK-10 renal
# [47] = tested on: A549 NSCLC
# [48] = tested on: UACC-62 melanoma
# [49] = tested on: NCI-H23 lung
# [50] = tested on: 786-0 renal
# [51] = tested on: DU-145 prostate
# [52] = tested on: EKVX NSCLC
# [53] = tested on: LOX IMVI melanoma
# [54] = tested on: T-47D breast
# [55] = tested on: HCT-116 colon
# [56] = tested on: SF-268 CNS
# [57] = tested on: COLO 205 colon
# [58] = tested on: MALME-3M melanoma
# [59] = tested on: SF-295 CNS
# [60] = tested on: SF-539 CNS
# [61] = tested on: ACHN renal
# [62] = tested on: K-562 leukemia
# [63] = tested on: MDA-N
# [64] = tested on: MDA-MB-435
# [65] = tested on: DMS 273 small cell lung
# [66] = tested on: RXF-631 renal
# [67] = tested on: SNB-19 CNS
# [68] = tested on: KM12 colon
# [69] = tested on: CCRF-CEM leukemia
smiles,measurement,setting,value
CC[C@@]1(OC(=O)CN(C)C)C(=O)OCc2c1cc1n(c2=O)Cc2cc3ccccc3nc2-1,GI50,[1],0.0665 µM
same,TGI,[1],0.643 µM and 0.43 µM
same,GI50,[2],0.131 µM
same,TGI,[2],1.12 µM and 1.31 µM
same,GI50,[3],0.356 µM
same,TGI,[3],2.15 µM and 1.73 µM
same,GI50,[4],0.116 µM
same,TGI,[4],4.09 µM and 8.64 µM
same,GI50,[5],0.577 µM
same,TGI,[5],5.02 µM and 3.35 µM
same,GI50,[6],0.00464 µM
same,GI50,[7],0.957 µM
same,TGI,[7],> 100 µM
same,GI50,[8],0.806 µM
same,TGI,[8],30.4 µM
same,GI50,[9],0.0475 µM
same,TGI,[9],5.8 µM and 4.3 µM
same,TGI,[10],3.19 µM
same,GI50,[11],0.113 µM
same,GI50,[12],0.0521 µM
same,GI50,[13],< 0.0175 µM
same,TGI,[13],0.958 µM and 0.425 µM
same,GI50,[14],0.476 µM
same,GI50,[15],0.0282 µM
same,TGI,[15],0.389 µM and 0.179 µM
same,GI50,[16],0.184 µM
same,TGI,[16],2.93 µM and 5.92 µM
same,GI50,[17],0.0377 µM
same,GI50,[18],0.0851 µM
same,TGI,[18],0.984 µM and 0.317 µM
same,GI50,[19],0.0424 µM
same,TGI,[19],0.574 µM and 0.559 µM
same,TGI,[20],1.53 µM
same,GI50,[21],1.44 µM
same,TGI,[21],> 100 µM
same,GI50,[22],3.53 µM
same,TGI,[22],> 100 µM
same,TGI,[23],0.147 µM
same,TGI,[24],4.03 µM and 0.892 µM
same,TGI,[25],4.94 µM
same,GI50,[26],0.101 µM
same,TGI,[26],2.13 µM and 1.09 µM
same,TGI,[27],0.42 µM and 0.445 µM
same,TGI,[28],2.4 µM and 0.806 µM
same,TGI,[29],0.318 µM and 0.344 µM
same,GI50,[30],0.0379 µM
same,TGI,[30],0.316 µM and 0.213 µM
same,GI50,[31],0.216 µM
same,TGI,[31],0.944 µM and 2.19 µM
same,GI50,[32],0.123 µM
same,TGI,[32],2.88 µM
same,GI50,[33],0.205 µM
same,TGI,[33],5.61 µM and 0.733 µM
same,GI50,[34],0.0235 µM
same,TGI,[34],> 100 µM
same,GI50,[35],0.0396 µM
same,TGI,[35],3.45 µM and 1.68 µM
same,GI50,[36],0.257 µM
same,TGI,[36],5.03 µM and 3.09 µM
same,GI50,[37],0.156 µM
same,GI50,[38],0.0181 µM
same,TGI,[38],0.231 µM and 0.107 µM
same,GI50,[39],0.00209 µM
same,TGI,[39],0.114 µM and < 0.0427 µM
same,GI50,[40],0.322 µM
same,TGI,[40],1.32 µM and 1.76 µM
same,GI50,[41],0.217 µM
same,TGI,[41],4.43 µM and > 23.3 µM
same,GI50,[42],1.01 µM
same,TGI,[43],1.36 µM
same,GI50,[44],1.09 µM
same,TGI,[44],3.47 µM and 5.34 µM
same,GI50,[45],0.16 µM
same,GI50,[46],0.481 µM
same,TGI,[46],7.85 µM
same,GI50,[47],0.042 µM
same,TGI,[47],4.33 µM and 7.12 µM
same,GI50,[48],< 0.012 µM
same,TGI,[48],0.116 µM and 0.132 µM
same,GI50,[49],0.0207 µM
same,TGI,[49],0.342 µM and 0.381 µM
same,TGI,[50],1.11 µM and 0.125 µM
same,GI50,[51],0.0207 µM
same,TGI,[51],0.246 µM and 0.484 µM
same,GI50,[52],1.88 µM
same,GI50,[53],< 0.0161 µM
same,TGI,[53],0.285 µM and 0.218 µM
same,GI50,[54],0.00498 µM and 0.0451 µM
same,TGI,[54],0.32 µM and 2.03 µM
same,GI50,[55],0.0391 µM
same,GI50,[56],0.0464 µM
same,GI50,[57],0.288 µM
same,TGI,[57],6.3 µM
same,GI50,[58],0.293 µM
same,TGI,[58],4.96 µM and 4.89 µM
same,GI50,[59],< 0.0127 µM
same,TGI,[59],0.673 µM and 0.938 µM
same,GI50,[60],< 0.0167 µM
same,TGI,[60],0.0572 µM and 0.315 µM
same,TGI,[61],0.273 µM
same,GI50,[62],0.108 µM
same,TGI,[62],7.67 µM and > 41.5 µM
same,TGI,[63],1.92 µM and 3.8 µM
same,TGI,[64],1.54 µM
same,TGI,[65],0.149 µM
N#CC(=C=[N-])[n+]1ccc(Cl)cc1,TGI,[1],31.5 µM
same,TGI,[2],29.5 µM
same,TGI,[3],31.5 µM
same,TGI,[5],27.6 µM
same,TGI,[6],60.7 µM
same,TGI,[66],52.5 µM
same,TGI,[7],42.4 µM
same,TGI,[8],24.4 µM
same,TGI,[67],94.5 µM
same,TGI,[9],32.2 µM
same,TGI,[10],33.4 µM
same,TGI,[68],59.7 µM
same,TGI,[12],37.9 µM
same,TGI,[13],29.7 µM
same,TGI,[15],20.4 µM
same,TGI,[16],32.7 µM
same,TGI,[18],86.6 µM
same,TGI,[19],31.1 µM
same,TGI,[20],26.9 µM
same,TGI,[23],55.5 µM
same,TGI,[24],28.3 µM
same,TGI,[25],65.4 µM
same,TGI,[26],27.8 µM
same,TGI,[27],66.7 µM
same,TGI,[28],10.9 µM
same,TGI,[29],> 100 µM
same,TGI,[30],29.7 µM
same,TGI,[69],56 µM
same,TGI,[31],29.8 µM
same,TGI,[32],> 100 µM
same,TGI,[33],39.8 µM
same,TGI,[35],9.55 µM
same,TGI,[36],28.6 µM
same,TGI,[37],33.8 µM
same,TGI,[38],59.9 µM
same,TGI,[39],62.2 µM
same,TGI,[41],36.4 µM
same,TGI,[43],83 µM
same,TGI,[45],23.4 µM
same,TGI,[46],45.8 µM
same,TGI,[47],> 100 µM
same,TGI,[48],29.9 µM
same,TGI,[49],29.9 µM
same,TGI,[50],37.2 µM
same,TGI,[52],33.8 µM
same,TGI,[53],26.2 µM
same,TGI,[55],31.2 µM
same,TGI,[56],28.2 µM
same,TGI,[57],32.9 µM
same,TGI,[58],30.6 µM
same,TGI,[59],38.9 µM
same,TGI,[60],43.2 µM
same,TGI,[62],11.3 µM
same,TGI,[65],46.2 µM
